Assay results taken from BindingDB's records for patent US20250215017 (Medinno Pharmaceutical Technology (Zhuhai) Co., 2025).

Biological target: T1, TGF-beta receptor type-1 (Homo sapiens, UniProt P36897)
T1 sequence (P36897 whole entry): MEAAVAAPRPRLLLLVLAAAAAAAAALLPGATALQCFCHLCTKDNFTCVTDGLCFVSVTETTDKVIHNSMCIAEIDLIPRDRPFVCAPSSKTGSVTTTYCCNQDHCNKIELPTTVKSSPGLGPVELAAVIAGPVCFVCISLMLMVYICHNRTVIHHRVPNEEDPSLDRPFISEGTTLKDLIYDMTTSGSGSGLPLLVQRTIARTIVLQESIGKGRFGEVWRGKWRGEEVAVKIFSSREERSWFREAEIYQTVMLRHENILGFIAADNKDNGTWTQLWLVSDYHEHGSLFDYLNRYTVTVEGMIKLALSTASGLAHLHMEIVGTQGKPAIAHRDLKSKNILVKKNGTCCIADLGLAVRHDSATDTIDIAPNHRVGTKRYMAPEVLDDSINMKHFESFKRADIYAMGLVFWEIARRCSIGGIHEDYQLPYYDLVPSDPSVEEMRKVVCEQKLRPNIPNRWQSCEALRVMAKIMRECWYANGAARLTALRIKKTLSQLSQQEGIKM
Assay: ADP-Glo Kinase Assay
Description: The principle of the activity assay was that TGFβR1 phosphorylates the substrate TGFβR1tide, consuming ATP in the process. […] The specific experimental steps were as follows. Compounds were diluted 4-fold in DMSO in a dilution plate, with the final starting concentration of the compounds being 10 μM, across 10 concentration gradient points. The compounds were then further diluted 50-fold into the kinase reaction buffer and incubated on a shaker for 20 minutes. Kinase was formulated with an enzyme reaction buffer. 2 μl kinase was added to each well of the reaction plate. 1 μl of the compound diluted in buffer was added to each well, and then the plate was sealed with a sealing membrane and centrifuged at 1000 g for 30 seconds, leaving it at room temperature for 10 minutes. Solutions of TGFβR1tide and ATP were prepared with the kinase reaction buffer, and 2 μL of the TGFβR1tide/ATP solution was added to the reaction plate. The plate was sealed with a sealing film and centrifuged at 1000 g for 30 seconds. It was allowed to react at room temperature for 60 minutes. Subsequently, 4 μL of ADP-Glo was transferred to a 384-well reaction plate and centrifuged at 1000 rpm/min for 1 minute, followed by incubation at 25° C. for 40 minutes. […] The RLU (Relative Luminescence Unit) signal was read using a BMG microplate reader, which was used to characterize the degree of kinase activity.

- IC50: 1.1 nM
Structure (SMILES): Cc1cccc(-c2n[nH]cc2-c2ccnc(-c3nc4c([nH]3)CN(C(=O)N3CCN(C)CC3)C4)c2)n1 [US20250215017, Compound 7]
